# Test results from PubChem BioAssay (NCI).
#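 A five-concentration, 48-hour dose response in 96-well plates underlies each endpoint, interpolated linearly between surrounding concentrations. GI50 is the concentration that inhibits growth by half. At the TGI there is no net growth.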
# What was measured:
# Assay in all cases: inhibition of tumour cell growth, NCI panel, 48 h
# MCF7 breast = tested on: MCF7 breast
# MDA-MB-435 = tested on: MDA-MB-435
# MDA-MB-231 breast = tested on: MDA-MB-231 breast
# SN12C renal = tested on: SN12C renal
# OVCAR-4 ovarian = tested on: OVCAR-4 ovarian
# SF-539 CNS = tested on: SF-539 CNS
# IGROV1 ovarian = tested on: IGROV1 ovarian
# SK-MEL-5 melanoma = tested on: SK-MEL-5 melanoma
# HS 578T breast = tested on: HS 578T breast
# HT29 colon = tested on: HT29 colon
# COLO 205 colon = tested on: COLO 205 colon
# OVCAR-3 ovarian = tested on: OVCAR-3 ovarian
# K-562 leukemia = tested on: K-562 leukemia
# SK-MEL-28 melanoma = tested on: SK-MEL-28 melanoma
# 786-0 renal = tested on: 786-0 renal
# NCI-H226 lung = tested on: NCI-H226 lung
# BT-549 breast = tested on: BT-549 breast
# SNB-75 CNS = tested on: SNB-75 CNS
# SW-620 colon = tested on: SW-620 colon
# SR leukemia = tested on: SR leukemia
# UACC-62 melanoma = tested on: UACC-62 melanoma
# UO-31 renal = tested on: UO-31 renal
# KM12 colon = tested on: KM12 colon
# NCI-H460 lung = tested on: NCI-H460 lung
# PC-3 prostate = tested on: PC-3 prostate
# HCT-116 colon = tested on: HCT-116 colon
# LOX IMVI melanoma = tested on: LOX IMVI melanoma
# HL-60(TB) leukemia = tested on: HL-60(TB) leukemia
# OVCAR-8 ovarian = tested on: OVCAR-8 ovarian
# M14 melanoma = tested on: M14 melanoma
# NCI-H522 lung = tested on: NCI-H522 lung
# RPMI-8226 leukemia = tested on: RPMI-8226 leukemia
# EKVX NSCLC = tested on: EKVX NSCLC
# RXF 393 renal = tested on: RXF 393 renal
# TK-10 renal = tested on: TK-10 renal
# SF-268 CNS = tested on: SF-268 CNS
# A498 renal = tested on: A498 renal
# OVCAR-5 ovarian = tested on: OVCAR-5 ovarian
# CAKI-1 renal = tested on: CAKI-1 renal
# SK-MEL-2 melanoma = tested on: SK-MEL-2 melanoma
# ACHN renal = tested on: ACHN renal
# A549 NSCLC = tested on: A549 NSCLC
# DU-145 prostate = tested on: DU-145 prostate
# U251 CNS = tested on: U251 CNS
# MOLT-4 leukemia = tested on: MOLT-4 leukemia
# SNB-19 CNS = tested on: SNB-19 CNS
# SF-295 CNS = tested on: SF-295 CNS
# UACC-257 melanoma = tested on: UACC-257 melanoma
# HCT-15 colon = tested on: HCT-15 colon
smiles,measurement,setting,value
CCCN1C(=O)/C(=C/c2cccc(O)c2)SC1=Nc1ccc(OC)cc1,GI50,MCF7 breast,10.9 µM
same,TGI,MCF7 breast,29.2 µM
same,GI50,MDA-MB-435,10.8 µM
same,TGI,MDA-MB-435,22 µM
same,GI50,MDA-MB-231 breast,7.86 µM
same,TGI,MDA-MB-231 breast,16 µM
same,GI50,SN12C renal,9.17 µM
same,TGI,SN12C renal,17.5 µM
same,GI50,OVCAR-4 ovarian,8.18 µM
same,TGI,OVCAR-4 ovarian,18.8 µM
same,GI50,SF-539 CNS,8.25 µM
same,TGI,SF-539 CNS,15.7 µM
same,GI50,IGROV1 ovarian,29.5 µM
same,TGI,IGROV1 ovarian,> 50 µM
same,GI50,SK-MEL-5 melanoma,7.28 µM
same,TGI,SK-MEL-5 melanoma,15.1 µM
same,GI50,HS 578T breast,16.5 µM
same,TGI,HS 578T breast,34.1 µM
same,GI50,HT29 colon,8.98 µM
same,TGI,HT29 colon,19.7 µM
same,GI50,COLO 205 colon,11.1 µM
same,TGI,COLO 205 colon,25.2 µM
same,GI50,OVCAR-3 ovarian,10.2 µM
same,TGI,OVCAR-3 ovarian,21.1 µM
same,GI50,K-562 leukemia,2.8 µM
same,TGI,K-562 leukemia,22.3 µM
same,GI50,SK-MEL-28 melanoma,10.2 µM
same,TGI,SK-MEL-28 melanoma,20.2 µM
same,GI50,786-0 renal,8.63 µM
same,TGI,786-0 renal,16.4 µM
same,GI50,NCI-H226 lung,13.3 µM
same,TGI,NCI-H226 lung,27.6 µM
same,GI50,BT-549 breast,8.08 µM
same,TGI,BT-549 breast,15.6 µM
same,GI50,SNB-75 CNS,11.7 µM
same,TGI,SNB-75 CNS,22.8 µM
same,GI50,SW-620 colon,9.78 µM
same,TGI,SW-620 colon,17.3 µM
same,GI50,SR leukemia,6.04 µM
same,TGI,SR leukemia,> 50 µM
same,GI50,UACC-62 melanoma,10.3 µM
same,TGI,UACC-62 melanoma,18.1 µM
same,GI50,UO-31 renal,13.5 µM
same,TGI,UO-31 renal,> 50 µM
same,GI50,KM12 colon,6.77 µM
same,TGI,KM12 colon,16.5 µM
same,GI50,NCI-H460 lung,13.5 µM
same,TGI,NCI-H460 lung,> 50 µM
same,GI50,PC-3 prostate,6.59 µM
same,TGI,PC-3 prostate,13.2 µM
same,GI50,HCT-116 colon,7.35 µM
same,TGI,HCT-116 colon,13.9 µM
same,GI50,LOX IMVI melanoma,7.9 µM
same,TGI,LOX IMVI melanoma,15.2 µM
same,GI50,HL-60(TB) leukemia,4.09 µM
same,TGI,HL-60(TB) leukemia,> 50 µM
same,GI50,OVCAR-8 ovarian,10.7 µM
same,TGI,OVCAR-8 ovarian,22.2 µM
same,GI50,M14 melanoma,12.9 µM
same,TGI,M14 melanoma,21.3 µM
same,GI50,NCI-H522 lung,23.4 µM
same,TGI,NCI-H522 lung,> 50 µM
same,GI50,RPMI-8226 leukemia,5.61 µM
same,TGI,RPMI-8226 leukemia,15.7 µM
same,GI50,EKVX NSCLC,9.5 µM
same,TGI,EKVX NSCLC,17.2 µM
same,GI50,RXF 393 renal,9.3 µM
same,TGI,RXF 393 renal,19.3 µM
same,GI50,TK-10 renal,9.62 µM
same,TGI,TK-10 renal,19.5 µM
same,GI50,SF-268 CNS,9.65 µM
same,TGI,SF-268 CNS,20.8 µM
same,GI50,A498 renal,8.81 µM
same,TGI,A498 renal,16.5 µM
same,GI50,OVCAR-5 ovarian,7.94 µM
same,TGI,OVCAR-5 ovarian,14.8 µM
same,GI50,CAKI-1 renal,9.86 µM
same,TGI,CAKI-1 renal,20.5 µM
same,GI50,SK-MEL-2 melanoma,31.9 µM
same,TGI,SK-MEL-2 melanoma,> 50 µM
same,GI50,ACHN renal,8.08 µM
same,TGI,ACHN renal,15.3 µM
same,GI50,A549 NSCLC,9.11 µM
same,TGI,A549 NSCLC,18.3 µM
same,GI50,DU-145 prostate,7.93 µM
same,TGI,DU-145 prostate,15.3 µM
same,GI50,U251 CNS,7.87 µM
same,TGI,U251 CNS,14.6 µM
same,GI50,MOLT-4 leukemia,4.7 µM
same,TGI,MOLT-4 leukemia,> 50 µM
same,GI50,SNB-19 CNS,9.5 µM
same,TGI,SNB-19 CNS,19.3 µM
same,GI50,SF-295 CNS,11.5 µM
same,TGI,SF-295 CNS,23.3 µM
same,GI50,UACC-257 melanoma,9.48 µM
same,TGI,UACC-257 melanoma,17.1 µM
same,GI50,HCT-15 colon,7.76 µM
same,TGI,HCT-15 colon,16.2 µM
